# Experimental data reported in patent US20040092561A1, “Azolidinone-vinyl fused -benzene derivatives” (priority 2002, published 2004).
# Legend:
# [1] = tested on: Akt/PKB phosphorylation in macrophages; experiment: Cell Based ELISA to Monitor PI3K Inhibition: Akt/PKB phosphorylation in Raw 264-7 macrophages after stimulation with C5a; details: Mus musculus, RAW264.7, 50 nM C5a, 5 minutes, 20 minutes pretreatment, read-out: inhibition of C5a-mediated AKT-phosphorylation
# Procedure: b) Cell Based ELISA to Monitor PI3K Inhibition
# Measurement of Akt/PKB phosphorylation in macrophages after stimulation with C5a: Raw 264: Raw 264-7 macrophages (cultured in DMEM-F12 medium containing 10%
# Fetal Calf serum and antibiotics) are plated at 20'000 cells/well in a 96 MTP 24 h before cell stimulation. Previous to the stimulation with 50 nM of Complement 5a during 5 minutes, Cells are serum starved for 2 h, and pretreated with inhibitors for 20 minutes. After stimulation cells are fixed in 4% formaldehyde for 20 minutes and washed 3 times in PBS containing 1% Triton X-100 (PBS/Triton). Endogenous peroxidase is blocked by a 20 minutes incubation in 0.6% H2O2 and 0.1% Sodium Azide in PBS/Triton and washed 3 times in PBS/Triton. Cells are then blocked by 60 minutes incubation with 10% fetal calf serum in PBS/Triton. Next, phosphorylated Akt/PKB is detected by an overnight incubation at 4° C. with first antibody (anti phospho Serine 473 Akt IHC, Cell Signaling) diluted 800-fold in PBS/Triton, containing 5% bovine serum albumin (BSA). After 3 washes in PBS/Triton, cells are incubated for 60 minutes with a peroxidase conjugated goat-anti-rabbit antibody ( 1/400 dilution in PBS/Triton, containing 5% BSA), washed 3 times in PBS/Triton, and 2 times in PBS and further incubated in 100 μl of substrate reagent solution (R&D) for 20 minutes. The reaction is stopped by addition of 50 μI of 1 M SO4H2 and absorbance is read at 450 nm.
# The values indicated reflect the percentage of inhibition of AKT phoshorylation as compared to basal level. Said values show a clear effect of the azolidinone-vinyl fused-benzene compounds on the activation of AKT phosphorylation in macrophages.
# [2] = target: PI3Kγ (Homo sapiens, UniProt P48736); experiment: High Throughput PI3K Lipid Kinase Assay (Binding Assay), SPA with neomycin-coated beads; type: biochemical; details: Human recombinant GST-PI3Kγ; [33P]γ-ATP; 180 minutes, room temperature
# Procedure: a) High Throughput PI3K Lipid Kinase Assay (Binding Assay)
# The assay combines the scintillation proximity assay technology (SPA, Amersham) with the capacity of neomycin (a polycationic antibiotic) to bind phospholipids with high affinity and specificity. The Scintillation Proximity Assay is based on the properties of weakly emitting isotopes (such as ^3H, ^125I, ^33P). Coating SPA beads with neomycin allows the detection of phosphorylated lipid substrates after incubation with recombinant PI3K and radioactive ATP in the same well, by capturing the radioactive phospholipids to the SPA beads through their specific binding to neomycin.
# To a 384 wells MTP containing 5 μl of a chemical compound library (containing 6% DMSO), the following assay components are added. 1) 5 μl (58 ng) of Human recombinant GST-PI3Kγ (in Hepes 40 mM, pH 7.4, DTT 1 mM and ethylenglycol 5%) 2) 10 μl of lipid micelles and 3) 10 μl of Kinase buffer ([^33P]γ-ATP 45 μM/60 nCi, MgCl2 30 mM, DTT 1 mM, P-Glycerophosphate 1 mM, NaVO4 100 μM, Na Cholate 0.3%, in Hepes 40 mM, pH 7.4). After incubation at room temperature for 180 minutes, with gentle agitation, the reaction is stopped by addition of 60 μl of a solution containing 100 μg of neomycin-coated PVT SPA beads in PBS containing ATP 10 mM and EDTA 5 mM. The assay is further incubated at room temperature for 60 minutes with gentle agitation to allow binding of phospholipids to neomycin-SPA beads. After precipitation of the neomycin-coated PVT SPA beads for 5 minutes at 1500×g, radioactive PtdIns(3)P is quantified by scintillation counting in a Wallac MicroBeta™ plate counter.
# The values indicated in respect of PI3K γ refer to the IC50 (μM), i.e. the amount necessary to achieve 50% inhibition of said target. Said values show a considerable potency of the azolidinone-vinyl fused-benzene compounds with regard to PI3Kγ.
# Chain of PI3Kγ (P48736 whole entry): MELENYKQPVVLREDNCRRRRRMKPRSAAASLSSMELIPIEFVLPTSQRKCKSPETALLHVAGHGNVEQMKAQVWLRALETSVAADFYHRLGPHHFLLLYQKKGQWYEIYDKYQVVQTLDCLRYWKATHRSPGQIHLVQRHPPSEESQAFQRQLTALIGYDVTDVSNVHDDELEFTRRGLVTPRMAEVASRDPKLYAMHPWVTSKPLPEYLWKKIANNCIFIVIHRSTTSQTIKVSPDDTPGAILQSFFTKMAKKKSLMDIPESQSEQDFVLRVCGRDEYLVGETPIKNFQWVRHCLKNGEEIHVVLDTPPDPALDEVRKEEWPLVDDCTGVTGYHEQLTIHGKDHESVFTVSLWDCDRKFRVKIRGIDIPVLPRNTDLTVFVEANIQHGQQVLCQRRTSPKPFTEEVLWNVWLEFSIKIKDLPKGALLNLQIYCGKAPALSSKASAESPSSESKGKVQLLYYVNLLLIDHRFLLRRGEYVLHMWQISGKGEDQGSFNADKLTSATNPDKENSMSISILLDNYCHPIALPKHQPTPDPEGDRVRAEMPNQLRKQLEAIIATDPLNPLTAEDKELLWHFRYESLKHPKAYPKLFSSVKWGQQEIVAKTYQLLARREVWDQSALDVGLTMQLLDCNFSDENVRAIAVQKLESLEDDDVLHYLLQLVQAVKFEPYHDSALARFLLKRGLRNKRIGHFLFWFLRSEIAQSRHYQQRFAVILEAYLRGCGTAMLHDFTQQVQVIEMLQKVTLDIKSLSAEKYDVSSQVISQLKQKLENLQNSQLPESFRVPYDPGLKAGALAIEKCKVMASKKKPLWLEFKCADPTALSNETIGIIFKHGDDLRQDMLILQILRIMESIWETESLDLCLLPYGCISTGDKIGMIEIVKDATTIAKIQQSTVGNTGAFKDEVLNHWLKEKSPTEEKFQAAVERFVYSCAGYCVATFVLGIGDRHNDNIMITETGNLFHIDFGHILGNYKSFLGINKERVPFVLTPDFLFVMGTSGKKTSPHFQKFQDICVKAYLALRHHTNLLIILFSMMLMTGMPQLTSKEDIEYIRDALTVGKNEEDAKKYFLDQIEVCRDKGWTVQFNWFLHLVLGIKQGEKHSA
IC50 [2],Structure (SMILES),inhibition at 10 µM [1]
0.06 µM,"O=C1NC(=S)S/C1=C/c1ccc2c(c1)OCO2 [Example 2, (5E)-5-(1,3-benzodioxol-5-ylmethylene)-2-thioxo-1,3-thiazolidin-4-one]",80%
,"O=C1NC(=O)/C(=C/c2ccc3c(c2)CCO3)S1 [Example 4, (5Z)-5-(2,3-dihydro-1-benzofuran-5-ylmethylene)-1,3-thiazolidine-2,4-dione]",80%
0.05 µM,"O=C1NC(=O)/C(=C/c2ccc3c(c2)OCO3)S1 [Example 1, (5Z)-5-(1,3-benzodioxol-5-ylmethylene)-1,3-thiazolidine-2,4-dione]",80%
0.03 µM,"CN1C(=O)COc2ccc(/C=C3\SC(=O)NC3=O)cc21 [Example 10, (5Z)-5-[(4-methyl-3-oxo-3,4-dihydro-2H-1,4-benzoxazin-6-yl)methylene]-1,3-thiazolidine-2,4-dione]",
